# In patent publication US20220372013A2, “PIPERIDINE-2,6-DIONE DERIVATIVES AND CROHN'S DISEASE TREATING” (Tianjin Hemay Pharmaceutical Sci-Tech Co., Ltd, priority 2016, published 2022):
# Tests used:
# [1] = system: DNBS-Induced Inflammatory Bowel Disease Models in Rats; test: Biological Example 1: DNBS-induced inflammatory bowel disease models in rats; format: in vivo, Wistar rats; settings: for Adhesion Degree / Colon MPO Activity / Colon Weight / Colon weight to length ratio / Ulcer Area: sixth day, Mean ± SD
# Protocol: Wistar rats, male, body weight of 100-120 g.
# 90 male Wistar rats were fasted for 40 hours. A 5% glucose injection was administered subcutaneously during fasting. 60 rats with normal conditions and moderate body weight were selected from the fasting rats. The animals were randomly divided into 6 groups according to the body weight: normal control group, model control group, sulfasalazine group (300 mg/Kg), and the compound in Example 27 groups consisting of 5, 15 and 30 mg/Kg dose groups. There were 10 rats in each group. The animals were anesthetized with ether. A specially made gavage device (made by a rat gavage device having the diameter of 2 mm, which was nested on a mouse gavage device having the diameter of 1 mm) was slowly inserted into the enteric cavity at 8 cm from the anus. The model control group, the sulfasalazine group and the compound in Example 27 groups were administered with 0.5 mL of 50 mg/mL DNBS in 30% ethanol solution. The normal control group was administered with 0.5 mL of 30% ethanol solution. The animals were inverted in anesthesia for 15 minutes after the gavage device was removed. The day when the model was prepared was the first day of the experiment. After 4 hours of DNBS induction, the corresponding drug or the corresponding volume of 1% CMC-Na was administered once per day. The body weights were recorded and the stool characteristics were scored. On the sixth day of the experiment colon tissues were taken from the animals to observe the results of each index.
# The compound in Example 27 and sulfasalazine: Preparation Method: Suspended with 1% CMC-Na, and prepared when it was needed.
# Animals were euthanized on the sixth day of the experiment to observe the results of each index. After the animals were sacrificed, colons were obtained. The adhesion degree of colon was observed and the length of the colon was measured. The ulcer area was calculated after removing the contents in the colon and the weight of the colon tissue was weighed. The colon tissue was longitudinally divided into two parts. One part of the colon tissue was fixed in 10% formalin solution for later use. The other part of the colon tissue was put into the liquid nitrogen to quickly frozen, and then was reserved at −80° C. for the detection of MPO.
# Calculation method for ulcer area: length of ulcer point (cm)×width of ulcer point (cm).
# The frozen tissue was ground into powder in liquid nitrogen. An appropriate amount of the powder was weighed and was added into 50 mM potassium phosphate solution (containing 0.5% cetyltrimethylammonium bromide) to give a 25 mg/mL solution. The resultant solution was homogenized by an electric homogenizer. 1 mL of suspension was centrifuged to give a supernatant. 7 μL of the supernatant was added into a 96-well plate and 200 μL of o-dianisidine mixture (containing 0.167 mg/mL o-dianisidine and 0.0006% H2O2 potassium phosphate buffer). OD values of the resultant solution at 0, 30, 60, and 90 s were detected at 450 nm of the microplate reader.
# Test for homogeneity of variance was performed with Spss13.0. Where variance of data was homogeneous (P>0.05), one-way ANOVA LSD test was performed. Where the analysis of variance was significant (P<0.05), then Dunnett's multiple comparison (parameter method) or Kruskal-Wallis non-parametric test was performed. Where the results of Kruskal-Wallis non-parametric test were significant (P<0.05), the Mann-Whitney U test was performed for pairwise comparison.
# [2] = system: DNBS-Induced Inflammatory Bowel Disease Models in Rats; test: Biological Example 2: DNBS-induced inflammatory bowel disease models in rats; format: in vivo, Wistar rats
# Protocol: 110 male Wistar rats were fasted for 40 hours. A 5% glucose injection (10 mL/Kg) was administered subcutaneously during fasting. 48 rats with normal conditions and moderate body weight were selected from the fasting rats. The animals were randomly divided into […] according to the body weight: normal control group, model control group, sulfasalazine group (300 mg/Kg), dexamethasone group (0.1 mg/Kg), the compound in Example 26 group (30 mg/kg) and the compound in Example 27 group (30 mg/kg), with 8 rats in each group. The animals were anesthetized with isoflurane. A specially made gavage device (made by a rat gavage device having the diameter of 2 mm, which was nested on a mouse gavage device having the diameter of 1 mm) was slowly inserted into the enteric cavity at 8 cm from the anus. The model control group, the compound in Example 26 group and the compound in Example 27 group were administered with 0.5 mL of 50 mg/mL DNBS in 30% ethanol solution. The normal control group was administered with 0.5 mL of 30% ethanol solution. The animals were inverted in anesthesia for 15 minutes after the gavage device was removed. The day when the model was prepared was the first day of the experiment. After 4 hours of DNBS induction, the corresponding drug or the corresponding volume of 1% CMC-Na was administered once per day. On the sixth day of the experiment, the animals were euthanized to observe the results of each index so as to score the colon adhesion degree, measure the length of colon and ulcer area, weigh colon and calculate the colon weight to length ratio.
# The compound in Example 26 and Example 27, sulfasalazine and dexamethasone: Preparation Method: Suspended with 1% CMC-Na, and prepared when it was needed.
# Levene's Test for homogeneity of data was performed with Spss. Where the data were homogeneous (P>0.05), one-way ANOVA LSD test was performed. Where the analysis of variance was significant (P≤0.05), Dunnett's multiple comparison (parameter method) was performed. Where the results of Levene's Test were significant (P≤0.05), Kruskal-Wallis nonparametric test was performed. Where the results of Kruskal-Wallis nonparametric test were significant (P≤0.05), Mann-Whitney U test was performed for pairwise comparison.
# [3] = 30 mg/Kg i.g. qd × 6, sixth day, Mean ± SD
smiles,measurement,setting,value
"COCCN1C(=O)CCC(N2C(=O)c3cccc(N)c3C2=O)C1=O (centres unmarked) [Example 27, 4-amino-2-(1-(2-methoxyethyl)-2,6-dioxopiperidin-3-yl)isoindolin-1,3-dione]",Adhesion Degree,[1]; 5 mg/Kg i.g. qd × 6,0.4 ± 0.7 Point
same,Colon MPO Activity,[1]; 5 mg/Kg i.g. qd × 6,20.3 ± 19.8 U/mg
same,Colon Weight,[1]; 5 mg/Kg i.g. qd × 6,1775.7 ± 321.0 mg
same,Colon weight to length ratio,[1]; 5 mg/Kg i.g. qd × 6,144.2 ± 30.5 mg/cm
same,Ulcer Area,[1]; 5 mg/Kg i.g. qd × 6,0.8 ± 0.9 cm^2
same,therapeutic effect (in words),"[1]; 5 mg/Kg, 15 mg/Kg and 30 mg/Kg",a certain dose effect and a good therapeutic effect without the weight loss of animals
same,Adhesion Degree,[1]; 15 mg/Kg i.g. qd × 6,0.1 ± 0.3 Point
same,Colon MPO Activity,[1]; 15 mg/Kg i.g. qd × 6,16.7 ± 9.8 U/mg
same,Colon Weight,[1]; 15 mg/Kg i.g. qd × 6,1668.7 ± 245.3 mg
same,Colon weight to length ratio,[1]; 15 mg/Kg i.g. qd × 6,127.1 ± 13.7 mg/cm
same,Ulcer Area,[1]; 15 mg/Kg i.g. qd × 6,0.7 ± 0.9 cm^2
same,Adhesion Degree,[1]; 30 mg/Kg i.g. qd × 6,0.1 ± 0.3 Point
same,Colon MPO Activity,[1]; 30 mg/Kg i.g. qd × 6,15.1 ± 13.0 U/mg
same,Colon Weight,[1]; 30 mg/Kg i.g. qd × 6,1534.7 ± 156.2 mg
same,Colon weight to length ratio,[1]; 30 mg/Kg i.g. qd × 6,117.7 ± 19.4 mg/cm
same,Ulcer Area,[1]; 30 mg/Kg i.g. qd × 6,0.3 ± 0.5 cm^2
same,reduction of the ulcer area,"[1]; 30 mg/Kg, vs model control group",about 80%
same,Adhesion Degree,[2]; [3],0.9 ± 0.8 Points
same,Colon Length,[2]; [3],12.9 ± 2.3 cm
same,Colon Weight,[2]; [3],1737.9 ± 410.6 mg
same,Ulcer Area,[2]; [3],2.0 ± 1.9 cm^2
same,therapeutic effects on the model (in words),[2]; 30 mg/kg i.g. qd × 6,good therapeutic effects
same,growth rate of the body weight (in words),"[2]; fourth day of the experiment, compared with model control group, doses as in Table 7",higher than that in the model control group
